Legend:
SK-BR-3 = experiment: Antiproliferative activity against human SKBr3 cells; format: functional, cell-based
Heat shock protein HSP90 = Heat shock protein HSP90 (Homo sapiens, UniProt P07900+P08238); experiment: Inhibition of Hsp90 by recombinant ATPase assay; format: functional
[1] = Homo sapiens, SK-BR-3, read-out: IC50

Row | Compound | IC50 (SK-BR-3; sk-br-3) | IC50 (Heat shock protein HSP90) | IC50 (SK-BR-3; [1])
1 | COc1cccc(C(=O)Nc2ccc(O)c(C)c2)c1 | Not Active | 2.5 µM | 
2 | Cc1cc(O)nc(SCC(=O)c2ccc(O)c(O)c2)n1 | Not Active | 2.3 µM | 
3 | O=c1c(Oc2ccc(F)cc2)coc2c(O)c(O)ccc12 | Not Active | 3.2 µM | 
4 | Cc1nc(N)sc1-c1csc(Nc2ccccn2)n1 | Not Active | 7 µM | 
5 | COc1cc(C2CC(c3ccccc3O)=NN2)ccc1O (stereo not given) |  | 5.4 µM | 48 µM
6 | COc1ccc(O)c(-c2c[nH]nc2-c2cccs2)c1 | Not Active | 3 µM | 

Other lines, results leading:

Row | IC50 (SK-BR-3; sk-br-3) | IC50 (Heat shock protein HSP90) | IC50 (SK-BR-3; [1]) | Compound
7 |  | 2 µM | 75 µM | O=S(=O)(Nc1ccc(Cl)cc1O)c1ccccc1
8 | Not Active | 4.1 µM |  | O=C1CC(=O)N(c2cccc(Cl)c2)N1
9 | Not Active | 1.9 µM |  | O=C1CC(Nc2ccc(N3CCOCC3)cc2)C(=O)N1Cc1ccccc1 (stereo not given)
10 |  | 2.7 µM | 66 µM | CC1(C)CC2=Nc3ccccc3NC(c3cccc(O)c3O)C2=C(O)C1 (stereo not given)
